Converted amounts (≈) assume the structure as drawn.
Tests used:
[1] = test system: Mycobacterium tuberculosis; test: Antituberculosis activity against Mycobacterium tuberculosis H37Rv by Lowenstein-Jensen method; type: functional
[2] = test system: Mycobacterium tuberculosis; test: Antituberculosis activity against Mycobacterium tuberculosis H37Rv at 6.25 ug/ml by Lowenstein-Jensen method; type: functional
Staphylococcus aureus [3] = test: Antibacterial activity against Staphylococcus aureus MTCC 96 at 100 ug/disc by paper disc diffusion technique; type: functional; settings: read-out: IZ
Bacillus cereus [4] = test: Antibacterial activity against Bacillus cereus MTCC 430 at 100 ug/disc by paper disc diffusion technique; type: functional; settings: read-out: IZ
Escherichia coli [5] = test: Antibacterial activity against Escherichia coli MTCC 739 at 100 ug/disc by paper disc diffusion technique; type: functional; settings: read-out: IZ
Pseudomonas aeruginosa [6] = test: Antibacterial activity against Pseudomonas aeruginosa MTCC 741 at 100 ug/disc by paper disc diffusion technique; type: functional; settings: read-out: IZ
Klebsiella pneumoniae [7] = test: Antibacterial activity against Klebsiella pneumoniae MTCC 109 at 100 ug/disc by paper disc diffusion technique; type: functional; settings: read-out: IZ
Salmonella typhi [8] = test: Antibacterial activity against Salmonella typhi MTCC 733 at 100 ug/disc by paper disc diffusion technique; type: functional, Salmonella enterica subsp. enterica serovar Typhi; settings: Salmonella enterica, read-out: IZ
Proteus vulgaris [9] = test: Antibacterial activity against Proteus vulgaris MTCC 1771 at 100 ug/disc by paper disc diffusion technique; type: functional; settings: read-out: IZ
Shigella flexneri [10] = test: Antibacterial activity against Shigella flexneri MTCC 1457 at 100 ug/disc by paper disc diffusion technique; type: functional; settings: read-out: IZ
Staphylococcus aureus [11] = test: Antibacterial activity against Staphylococcus aureus MTCC 96 by agar streak dilution method; type: functional
Bacillus cereus [12] = test: Antibacterial activity against Bacillus cereus MTCC 430 by agar streak dilution method; type: functional
Escherichia coli [13] = test: Antibacterial activity against Escherichia coli MTCC 739 by agar streak dilution method; type: functional
Pseudomonas aeruginosa [14] = test: Antibacterial activity against Pseudomonas aeruginosa MTCC 741 by agar streak dilution method; type: functional
Klebsiella pneumoniae [15] = test: Antibacterial activity against Klebsiella pneumoniae MTCC 109 by agar streak dilution method; type: functional
Salmonella typhi [16] = test: Antibacterial activity against Salmonella typhi MTCC 733 by agar streak dilution method; type: functional, Salmonella enterica subsp. enterica serovar Typhi; settings: Salmonella enterica
Proteus vulgaris [17] = test: Antibacterial activity against Proteus vulgaris MTCC 1771 by agar streak dilution method; type: functional
Shigella flexneri [18] = test: Antibacterial activity against Shigella flexneri MTCC 1457 by agar streak dilution method; type: functional
Aspergillus niger [19] = test: Antifungal activity against Aspergillus niger MTCC 282 at 100 ug/disc by paper disc diffusion technique; type: functional; settings: read-out: IZ
Aspergillus fumigatus [20] = test: Antifungal activity against Aspergillus fumigatus MTCC 343 at 100 ug/disc by paper disc diffusion technique; type: functional; settings: read-out: IZ
Aspergillus clavatus [21] = test: Antifungal activity against Aspergillus clavatus MTCC 1323 at 100 ug/disc by paper disc diffusion technique; type: functional; settings: read-out: IZ
Candida albicans [22] = test: Antifungal activity against Candida albicans MTCC 183 at 100 ug/disc by paper disc diffusion technique; type: functional; settings: read-out: IZ
Aspergillus niger [23] = test: Antifungal activity against Aspergillus niger MTCC 282 by agar streak dilution method; type: functional
Aspergillus fumigatus [24] = test: Antifungal activity against Aspergillus fumigatus MTCC 343 by agar streak dilution method; type: functional
Aspergillus clavatus [25] = test: Antifungal activity against Aspergillus clavatus MTCC 1323 by agar streak dilution method; type: functional
Candida albicans [26] = test: Antifungal activity against Candida albicans MTCC 183 by agar streak dilution method; type: functional
[27] = test system: Mycobacterium tuberculosis; test: Antituberculosis activity against Mycobacterium tuberculosis H37Rv by BACTEC MGIT method; type: functional

Row | SMILES | MIC [1] [µg/mL] | inhibition at 6.25 µg/mL [2] [%] | zone of inhibition at 100 µg/disc (Staphylococcus aureus [3]) [mm] | zone of inhibition at 100 µg/disc (Bacillus cereus [4]) [mm] | zone of inhibition at 100 µg/disc (Escherichia coli [5]) [mm] | zone of inhibition at 100 µg/disc (Pseudomonas aeruginosa [6]) [mm] | zone of inhibition at 100 µg/disc (Klebsiella pneumoniae [7]) [mm] | zone of inhibition at 100 µg/disc (Salmonella typhi [8]) [mm] | zone of inhibition at 100 µg/disc (Proteus vulgaris [9]) [mm] | zone of inhibition at 100 µg/disc (Shigella flexneri [10]) [mm] | MIC (Staphylococcus aureus [11]) [µg/mL] | MIC (Bacillus cereus [12]) [µg/mL] | zone of inhibition at 100 µg/disc (Aspergillus niger [19]) [mm] | zone of inhibition at 100 µg/disc (Aspergillus fumigatus [20]) [mm] | zone of inhibition at 100 µg/disc (Aspergillus clavatus [21]) [mm] | zone of inhibition at 100 µg/disc (Candida albicans [22]) [mm] | MIC (Aspergillus niger [23]) [µg/mL] | MIC (Aspergillus fumigatus [24]) [µg/mL] | MIC (Aspergillus clavatus [25]) [µg/mL] | MIC (Candida albicans [26]) [µg/mL] | other results
1 | CCOc1ccc(NC(=O)CSc2nnc(Cn3cnc4ccccc43)o2)cc1 | 50 (≈ 122 µM) | 98 | 14 | 18 | 23 | 16 | < 10 | 21 | 25 | 22 | 50 (≈ 122 µM) | 50 (≈ 122 µM) | 17 | 11 | 16 | 24 | 50 (≈ 122 µM) | 100 (≈ 244 µM) | 100 (≈ 244 µM) | 25 (≈ 61.1 µM) | MIC (Escherichia coli [13]): 25 µg/mL (≈ 61.1 µM); MIC (Pseudomonas aeruginosa [14]): 100 µg/mL (≈ 244 µM); MIC (Klebsiella pneumoniae [15]): 100 µg/mL (≈ 244 µM); MIC (Salmonella typhi [16]): 50 µg/mL (≈ 122 µM); MIC (Proteus vulgaris [17]): 12.5 µg/mL (≈ 30.5 µM); MIC (Shigella flexneri [18]): 25 µg/mL (≈ 61.1 µM); MIC [27]: > 6.25 µg/mL
2 | O=C(CSc1nnc(Cn2cnc3ccccc32)o1)Nc1ccc(I)cc1 | 250 (≈ 509 µM) | 95 | 17 | 15 | 12 | 22 | 23 | 16 | 22 | 20 | 50 (≈ 102 µM) | 100 (≈ 204 µM) | < 10 | 17 | 13 | 12 | 100 (≈ 204 µM) | 100 (≈ 204 µM) | 100 (≈ 204 µM) | 100 (≈ 204 µM) | MIC (Escherichia coli [13]): 100 µg/mL (≈ 204 µM); MIC (Pseudomonas aeruginosa [14]): 25 µg/mL (≈ 50.9 µM); MIC (Klebsiella pneumoniae [15]): 50 µg/mL (≈ 102 µM); MIC (Salmonella typhi [16]): 100 µg/mL (≈ 204 µM); MIC (Proteus vulgaris [17]): 25 µg/mL (≈ 50.9 µM); MIC (Shigella flexneri [18]): 50 µg/mL (≈ 102 µM); MIC [27]: > 6.25 µg/mL
3 | O=C(CSc1nnc(Cn2cnc3ccccc32)o1)Nc1ccc(F)cc1 | 50 (≈ 130 µM) | 97 | 18 | 16 | 18 | 24 | 22 | 21 | 14 | 23 | 25 (≈ 65.2 µM) | 50 (≈ 130 µM) | 19 | 23 | 17 | 16 | 50 (≈ 130 µM) | 50 (≈ 130 µM) | 100 (≈ 261 µM) | 100 (≈ 261 µM) | MIC (Escherichia coli [13]): 50 µg/mL (≈ 130 µM); MIC (Pseudomonas aeruginosa [14]): 12.5 µg/mL (≈ 32.6 µM); MIC (Klebsiella pneumoniae [15]): 50 µg/mL (≈ 130 µM); MIC (Salmonella typhi [16]): 50 µg/mL (≈ 130 µM); MIC (Proteus vulgaris [17]): 50 µg/mL (≈ 130 µM); MIC (Shigella flexneri [18]): 12.5 µg/mL (≈ 32.6 µM); MIC [27]: > 6.25 µg/mL
4 | CC(=O)Nc1ccc(NC(=O)CSc2nnc(Cn3cnc4ccccc43)o2)cc1 | 100 (≈ 237 µM) | 95 | < 10 | 11 | 20 | 19 | 13 | < 10 | 20 | 16 | 100 (≈ 237 µM) | 100 (≈ 237 µM) | 22 | 15 | 18 | 18 | 25 (≈ 59.2 µM) | 100 (≈ 237 µM) | 100 (≈ 237 µM) | 100 (≈ 237 µM) | MIC (Escherichia coli [13]): 50 µg/mL (≈ 118 µM); MIC (Pseudomonas aeruginosa [14]): 100 µg/mL (≈ 237 µM); MIC (Klebsiella pneumoniae [15]): 100 µg/mL (≈ 237 µM); MIC (Salmonella typhi [16]): 100 µg/mL (≈ 237 µM); MIC (Proteus vulgaris [17]): 25 µg/mL (≈ 59.2 µM); MIC (Shigella flexneri [18]): 100 µg/mL (≈ 237 µM); MIC [27]: > 6.25 µg/mL
5 | CC(=O)N1CCN(c2ccc(OCC3COC(Cn4ccnc4)(c4ccc(Cl)cc4Cl)O3)cc2)CC1 (stereo not drawn) [KETOCONAZOLE] |  |  |  |  |  |  |  |  |  |  |  |  | 30 | 29 | 31 | 33 | 1.56 (≈ 2.94 µM) | 0.78 (≈ 1.47 µM) | 0.78 (≈ 1.47 µM) | 1.56 (≈ 2.94 µM) | 
6 | O=C(CSc1nnc(Cn2cnc3ccccc32)o1)Nc1ccc(Br)cc1 | 12.5 (≈ 28.1 µM) | 99 | 23 | 26 | 19 | 26 | 22 | 22 | 17 | 22 | 6.25 (≈ 14.1 µM) | 12.5 (≈ 28.1 µM) | 16 | 24 | 23 | 16 | 100 (≈ 225 µM) | 25 (≈ 56.3 µM) | 50 (≈ 113 µM) | 100 (≈ 225 µM) | MIC (Escherichia coli [13]): 50 µg/mL (≈ 113 µM); MIC (Pseudomonas aeruginosa [14]): 12.5 µg/mL (≈ 28.1 µM); MIC (Klebsiella pneumoniae [15]): 50 µg/mL (≈ 113 µM); MIC (Salmonella typhi [16]): 50 µg/mL (≈ 113 µM); MIC (Proteus vulgaris [17]): 100 µg/mL (≈ 225 µM); MIC (Shigella flexneri [18]): 25 µg/mL (≈ 56.3 µM); MIC [27]: > 6.25 µg/mL

— ChEMBL document CHEMBL2034905, “Synthesis of benzimidazolyl-1,3,4-oxadiazol-2ylthio-N-phenyl (benzothiazolyl) acetamides as antibacterial, antifungal and antituberculosis agents” (Eur J Med Chem, 2012)
